The target in this test is 3-beta-hydroxysteroid-Delta(8),Delta(7)-isomerase (Homo sapiens, UniProt Q15125). The test can be described thus: Displacement of [3H]ifenprodil from FLAG-tagged EBP (unknown origin) overexpressing human Expi293F cells measured after 20 mins by Microbeta microplate counter. Format: cell-based. A general note: In a radioligand displacement assay an active substance lowers the binding of a labelled ligand.

Molecules are shown by their SMILES.

Chain of 3-beta-hydroxysteroid-Delta(8),Delta(7)-isomerase (Q15125 whole entry): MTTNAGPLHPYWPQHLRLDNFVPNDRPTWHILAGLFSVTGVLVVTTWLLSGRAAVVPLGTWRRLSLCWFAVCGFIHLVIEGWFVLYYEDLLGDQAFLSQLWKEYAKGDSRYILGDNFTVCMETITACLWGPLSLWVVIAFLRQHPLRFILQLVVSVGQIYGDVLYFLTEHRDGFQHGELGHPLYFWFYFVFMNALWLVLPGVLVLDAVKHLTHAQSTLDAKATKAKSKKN

In general, IC50 refers to the concentration needed to halve the response being measured. Read a low IC50 as higher potency. For the compound `Cn1nc(-c2ccccc2)cc1S(=O)(=O)N1CC2(CN(C3CCOCC3)C2)C1`, the IC50 is less than 15 nM. In the case of `Cn1nc(C2CCCCC2)cc1S(=O)(=O)N1CC2(CN(C3CCOCC3)C2)C1` it was less than 15 nM; in that of `Cc1nc(C(F)(F)C(F)(F)F)ccc1S(=O)(=O)N1CC2(CN(C3CCOCC3)C2)C1`, less than 15 nM; in that of `Cc1cc(C(F)(F)F)nc(C)c1S(=O)(=O)N1CC2(CN(Cc3ccn(C)n3)C2)C1`, less than 15 nM.

Consider `Cn1nc(C2CCC2)cc1S(=O)(=O)N1CC2(CN(C3CCOCC3)C2)C1`, for which the IC50 was less than 15 nM. `CCc1cnccc1CN1CC2(C1)CN(S(=O)(=O)c1ccc(C(F)(F)F)nc1C)C2`: the IC50 is less than 15 nM.

The values above are taken from ChEMBL document CHEMBL6134913, “Novel Emopamil-Binding Protein Inhibitors for Treating Multiple Sclerosis” (ACS Med Chem Lett, 2025).
